Measured values reported in patent US20240247031A1, “COMPOSITION FOR TREATING CANCER CONTAINING TELOMERASE-TARGETING GNRH ANTAGONIST-DERIVED PEPTIDE HS1002” (Research & Business Foundation Sungkyunkwan University, priority 2023, published 2024).

How the values were obtained:
HEK293-GnRHR cells [1] = biological target: T1, HEK293-GnRHR cells (Homo sapiens, UniProt P30968); experiment: Intracellular calcium flux assay; format: cell-based; conditions: 100 nM
T1 construct: GFP; expressed in transfected cells
T1 sequence (P30968 1-328): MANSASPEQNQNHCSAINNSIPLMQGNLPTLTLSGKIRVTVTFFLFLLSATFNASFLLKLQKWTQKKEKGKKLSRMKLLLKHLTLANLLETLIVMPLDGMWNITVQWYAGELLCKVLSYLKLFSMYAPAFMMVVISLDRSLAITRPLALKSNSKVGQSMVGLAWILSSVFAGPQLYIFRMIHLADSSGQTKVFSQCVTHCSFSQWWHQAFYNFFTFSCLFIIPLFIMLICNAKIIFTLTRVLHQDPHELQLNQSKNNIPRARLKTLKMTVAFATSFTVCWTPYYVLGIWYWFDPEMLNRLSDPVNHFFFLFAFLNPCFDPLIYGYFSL
Procedure: (§1) Human embryonic kidney cell line (HEK293), and mouse cancer cell lines (MC38, 4T1) were purchased from the American Type Culture Collection (Manassas, VA, USA). All cell lines were grown in Dulbecco's Modified Essential Medium (DMEM) or Roswell Park Memorial Institute (RPMI) 1640 supplemented with 10% FBS, 100 U/mL penicillin, and 100 μg/mL streptomycin (WelGENE, Daegu, South Korea) in a humidified atmosphere of 5% CO2 at 37° C. To obtain GnRHR-overexpressing HEK293 (HEK293-GnRHR) cells, transfection of the pCMV-AC-GFP-GnRHR vector (HEK293-GnRHR) was performed using Lipofectamine™ 3000 according to the manufacturer's instructions (Cat. 100022052, Thermo Fisher Scientific, Waltham, MA, USA). Colonies of geneticin-resistant cells were selected by adding G418 (800 μg/mL, Sigma) to the culture medium. The HEK293-pCMV-AC-GFP vector (HEK293-Vector) cells were used as a mock-transfection group.
Intracellular calcium mobilization was measured using the Calcium Flux Assay Kit (Cat. ab233472, abcam) in response to different concentrations of each peptide. The percentage increase was calculated relative to basal fluorescence intensity. The experiment was performed in triplicate.

[2] = system: c-Myc, AKT, ERK1/2 in LNCaP tumor xenografts; experiment: Western blot of c-Myc and signaling proteins in LNCaP-xenografted tumors (FIG. 14); format: in vivo, mouse; conditions: LNCaP xenograft; HS1002 1 mg/kg/day, LA 0.1 mg/kg/day s.c.
Procedure: The cells and tumor tissues were homogenized using the PRO-PREP™ extraction solution (iNtRON Biotechnology, Seongnam, Korea). After incubation, the homogenate was centrifuged at 16,000×g for 20 min at 4° C., and the supernatant was collected for western blot analysis. Subsequently, an equivalent quantity of protein was separated using sodium dodecyl sulfate polyacrylamide gels and transferred onto a polyvinylidene difluoride (PVDF) membrane. The PVDF membranes were incubated with the primary antibodies overnight at 4° C., washed with tris-buffered saline, and then incubated with HRP-conjugated anti-mouse or anti-rabbit antibodies. The bands were visualized using a ChemiDoc imaging system (Bio-Rad, Hercules, CA, USA). The band intensities were determined using an Image J software.
All mice were purchased from Central Lab Animal Inc. ([…]). They were raised in a 12 h environmental light/dark cycle with controlled temperature (22±2° C.) conditions. The experimental protocol was approved by the Sungkyunkwan University Institutional Animal Care and Use Committee (SKKUIACUC2021-06-27-1, SKKUIACUC2023-01-07-1). For the establishment of tumors, LNCaP (1×10^7), MC38 (2×10^5), and 4T1 (1×10^6) suspended in serum-free media containing 50% Matrigel was subcutaneously administered in the right flank of mice, respectively. The tumor volumes (V) were calculated using a caliper and the standard equation: V (mm^3)=0.52 (ab^2) (a=length, b=width). Once the tumor reached 100-200 mm^3, the mice were randomly divided into different groups and subcutaneously injected with a vehicle or each peptide every day.
To investigate the anticancer effect of HS1002, the present inventors observed the volume of cancer cells after transplanting the cancer cells into experimental animals. Specifically, mice (4-week-old male BALB/c nude mice; Central Lab. Animal Inc., Seoul, Korea) were prepared, and tumor cells (1×10^7 LNCaP cells) suspended in 1 mL of a serum-free medium containing 50% Matrigel were percutaneously injected into the upper flank of each nude mouse. When the tumor cell volume reached about 200 mm^3, the mice were randomly assigned to a vehicle control group, a leuprolide acetate-treated group, and test groups (GV1001-treated group and HS1002-treated group), respectively. Leuprolide acetate (0.1 mg/kg/day) and GV1001 and HS1002 (1 mg/kg/day) were injected subcutaneously for 13 days.

HEK293-Vector cells = experiment: CRE-luciferase reporter assay, mock-transfected cells; format: cell-based, human
Procedure: as §1, with “group. […] The transfected cells were exposed to different concentrations of peptide for 24 h, and the promoter activity was measured by a dual-luciferase reporter assay system (BPS Bioscience). The firefly and Renilla luciferase activities were measured using a microplate luminometer (Thermo, Varioskan LUX Multimode Microplate Reader). […]” for “group.”

HEK293-GnRHR cells [3] = biological target: T1, HEK293-GnRHR cells; experiment: CRE-luciferase reporter assay; format: cell-based; conditions: 100 nM, 24 h
Procedure: as §1
The HEK293-pCMV6-AC-GFP and HEK293-GnRHR cells (4×10^4 cells/well) were grown in 96-well plates and co-transfected with a luciferase reporter plasmid containing a cAMP response element (CRE) using Lipofectamine 3000 (Life Technologies). The transfected cells were exposed to different concentrations of peptide for 24 h, and the promoter activity was measured by a dual-luciferase reporter assay system (BPS Bioscience). The firefly and Renilla luciferase activities were measured using a microplate luminometer (Thermo, Varioskan LUX Multimode Microplate Reader). The calculation of relative luciferase activities involved the normalization of the firefly luciferase activity […].

For CCNC(=O)[C@@H]1CCCN1C(=O)[C@H](CCCNC(=N)N)NC(=O)[C@H](CC(C)C)NC(=O)[C@@H](CC(C)C)NC(=O)[C@H](Cc1ccc(O)cc1)NC(=O)[C@H](CO)NC(=O)[C@H](Cc1c[nH]c2ccccc12)NC(=O)[C@H](Cc1c[nH]cn1)NC(=O)[C@@H]1CCC(=O)N1 [LA, Leuprolide acetate, reference compound], the calcium flux (HEK293-GnRHR cells [1]) was “more potent effect of calcium flux in HEK293-GnRHR cells than in HEK293-Vector cells”, the “expression of c-Myc in tumor tissue” value [2] was “significantly downregulated” and the “expression of p-AKT in tumor tissue” value [2] was “significantly downregulated”. The “expression of p-ERK1/2 in tumor tissue” value [2] was “significantly downregulated”, the CRE-luciferase activity (HEK293-Vector cells) was “no significant change” and the “CRE-derived reporter gene activity” value (HEK293-GnRHR cells [3]) was “induced CRE-derived reporter gene activity”.
